Measurements as given in paper PMC8143347, “Metabolism and Interspecies Variation of IMMH-010, a Programmed Cell Death Ligand 1 Inhibitor Prodrug” (Pharmaceutics, 2021).

How the values were obtained:
[1] = test system: MC38 colon carcinoma; assay: Antitumor activity in MC38 colon carcinoma xenograft model; format: in vivo, mouse
Method: (§1) The antitumor activity of IMMH-010 was evaluated by B16F10 melanoma and MC38 colon carcinoma xenograft models. The B16F10 and MC38 cells were resuspended in saline (1.5 × 10^6 cells/0.2 mL saline) and injected subcutaneously into the right flanks of each mouse on day 0. The treated mice received once-daily oral administration of IMMH-010 maleate (1.25, 2.5, 5, and 10 mg/kg, n = 10) by oral gavage (PO) for 19 consecutive days, whereas the control mice received vehicle (0.5% carboxymethyl cellulose, n = 10). The mice in the positive control group received the anti-mouse PD-L1 antibody (696618M2, Bio X Cell, West Lebanon, NH, USA) at 10 mg/kg intraperitoneally every 3 days (n = 10). The first-line antineoplastic drug cyclophosphamide (CTX) was administered at doses of 80 and 40 mg/kg weekly in the B16F10 and MC38 models (n = 10), respectively. After the last treatment, on day 19, the mice were sacrificed, and the tumor and spleen were stripped and weighed. The tumor growth inhibition (TGI) was calculated as TGI = (1 − treatment group tumor weight/vehicle group tumor weight) × 100.

[2] = test system: B16F10 melanoma; assay: Antitumor activity in B16F10 melanoma xenograft model; format: in vivo, mouse
Method: as §1

[3] = Plasma and tumor PK in B16F10 melanoma xenograft mice; format: in vivo, mouse; details: B16F10 mice, after last oral dose of IMMH-010 maleate 5 mg/kg
Method: After the final dose, tumor and blood samples treated with IMMH-010 maleate (5 mg/kg) were collected over 72 h. Blood was exposed in an EP tube containing 500 mM NaF and 0.5% heparin sodium. Plasma samples were obtained by centrifugation, and tumor tissues were homogenized with 3 volumes (w/v) of saline on ice. The concentration of IMMH-010 and YPD-29B in plasma and tumor samples was quantitated by an LC-MS/MS method.
LC-MS/MS was performed using a triple quadrupole mass spectrometer (API 4000, AB Sciex, Framingham, MA, USA) with an ultra-performance liquid chromatography system (LC-30A, Shimadzu, Kyoto, Japan). Analyst 1.6.2 software (AB Sciex) was used for data acquisition and analysis. Mobile phase A was 1 mM ammonium acetate and mobile phase B was methanol. The mobile phase was delivered with the following gradient elution profile: 0–2.8 min, 70% B; 2.9 min, 85% B; 3 min, 90% B; 3.1–6.8 min, 100% B; 6.9–12 min, 70% B. The flow rate was 0.3 mL/min, and the column oven was maintained at 35 °C. The specific transitions monitored were 641.3 → 494.2 for IMMH-010, 597 → 155 for YPD-29B, 512 → 247 for M3, and 524 → 246 for M4.
All statistics were calculated using GraphPad Prism 8.0 software (San Diego, CA, USA) designed for one-way ANOVA. Pharmacokinetic parameters were calculated with a non-compartmental analysis using WinNonlin Version 6.3 (Pharsight, Mountain View, CA, USA). ADMET predictor V10.0 (Simulations Plus, Inc., Lancaster, CA, USA) and Microsoft Excel (Microsoft, Redmond, WA, USA) were used to process the data (i.e., half-life (t1/2) and hepatic clearance (CLhep) determination). Data were expressed as means ± standard deviations (SD). Results were considered statistically significant if the p-value <0.05, <0.01 and <0.001.

[4] = Body weight in MC38 model
Method: as §1

[5] = MC38, IMMH-010 maleate 1.25 mg/kg PO once daily 19 days
[6] = MC38, IMMH-010 maleate 2.5 mg/kg PO once daily 19 days
[7] = MC38, IMMH-010 maleate 5 mg/kg PO once daily 19 days
[8] = MC38, IMMH-010 maleate 10 mg/kg PO once daily 19 days
[9] = B16F10, IMMH-010 maleate 1.25 mg/kg PO once daily 19 days
[10] = B16F10, IMMH-010 maleate 2.5 mg/kg PO once daily 19 days
[11] = B16F10, IMMH-010 maleate 5 mg/kg PO once daily 19 days
[12] = B16F10, IMMH-010 maleate 10 mg/kg PO once daily 19 days

concentration of IMMH-010 in plasma and tumor tissues [3]: < 1 ng/mL
SMILES: CC(C)OC(=O)[C@H](CO)NCc1cc(Cl)c(OCc2cccc(-c3ccccc3)c2Br)cc1OCc1cccnc1 [IMMH-010]
Tumor Weight (g) X ± SD [1, 5]: 1.03 ± 0.65 g
Tumor Weight TGI (%) [1, 5]: 40%
Tumor Weight (g) X ± SD [1, 6]: 1.13 ± 0.78 g
Tumor Weight TGI (%) [1, 6]: 34%
Tumor Weight (g) X ± SD [1, 7]: 0.42 ± 0.39 g
Tumor Weight TGI (%) [1, 7]: 75%
Tumor Weight (g) X ± SD [1, 8]: 0.73 ± 0.54 g
Tumor Weight TGI (%) [1, 8]: 57%
Tumor Weight (g) X ± SD [2, 9]: 1.78 ± 1.13 g
Tumor Weight TGI (%) [2, 9]: 23%
Tumor Weight (g) X ± SD [2, 10]: 1.26 ± 0.85 g
Tumor Weight TGI (%) [2, 10]: 45%
Tumor Weight (g) X ± SD [2, 11]: 1.39 ± 0.84 g
Tumor Weight TGI (%) [2, 11]: 40%
Tumor Weight (g) X ± SD [2, 12]: 1.04 ± 0.66 g
Tumor Weight TGI (%) [2, 12]: 55%
Body Weight (g) X ± SD Finish [4, 5]: 24.3 ± 2.1 g
Body Weight (g) X ± SD Start ([4]; MC38, IMMH-010 maleate 1.25 mg/kg PO once daily): 22.2 ± 0.4 g
Body Weight (g) X ± SD Finish [4, 6]: 25.3 ± 2.3 g
Body Weight (g) X ± SD Start ([4]; MC38, IMMH-010 maleate 2.5 mg/kg PO once daily): 22.0 ± 0.6 g
Body Weight (g) X ± SD Finish [4, 7]: 23.7 ± 1.8 g
Body Weight (g) X ± SD Start ([4]; MC38, IMMH-010 maleate 5 mg/kg PO once daily): 21.9 ± 0.8 g
Body Weight (g) X ± SD Finish [4, 8]: 25.0 ± 1.7 g
Body Weight (g) X ± SD Start ([4]; MC38, IMMH-010 maleate 10 mg/kg PO once daily): 21.9 ± 0.7 g
effect on body weight ([4]; MC38 model, IMMH-010 maleate PO once a day for 19 days): without weight loss
